In patent US20240269133A1, “METHODS OF TREATING INTERSTITIAL CYSTITIS/BLADDER PAIN SYNDROME” (Purdue Pharma L.P., priority 2021, published 2024):
One block for each molecule: values may come before it.

Experiments:
[1] = test system: CYP-induced visceral pain; assay: Cyclophosphamide (CYP)-induced visceral pain model (acute cystitis), von Frey testing; assay type: in vivo, female Sprague-Dawley rats; details: for AUC 1-6 g (allodynia) / Nociceptive threshold: mean ± s.e.m.
[2] = Urine concentration after a single oral dose (methyl cellulose suspension); assay type: in vivo, humans; details: human
[3] = 30 mg/kg p.o., overall 2-24 h after CYP

Urine concentration, mean ([2]; 0.2 mg single oral dose, 0 to 8 h): 2311 nM | Urine concentration, mean ([2]; 0.2 mg single oral dose, 8 to 16 h): 394 nM | Urine concentration, mean ([2]; 0.2 mg single oral dose, 16 to 24 h): BQL | Urine concentration, mean ([2]; 0.2 mg single oral dose, 24 to 32 h): BQL | Urine concentration, mean ([2]; 0.2 mg single oral dose, 32 to 40 h): BQL | Urine concentration, mean ([2]; 0.2 mg single oral dose, 40 to 48 h): BQL | Urine concentration, mean ([2]; 0.6 mg single oral dose, 0 to 8 h): 1641 nM | Urine concentration, mean ([2]; 0.6 mg single oral dose, 8 to 16 h): 531 nM | Urine concentration, mean ([2]; 0.6 mg single oral dose, 16 to 24 h): BQL | Urine concentration, mean ([2]; 0.6 mg single oral dose, 24 to 32 h): BQL | Urine concentration, mean ([2]; 0.6 mg single oral dose, 32 to 40 h): BQL | Urine concentration, mean ([2]; 0.6 mg single oral dose, 40 to 48 h): BQL | Urine concentration, mean ([2]; 2 mg single oral dose, 0 to 8 h): 10809 nM | Urine concentration, mean ([2]; 2 mg single oral dose, 8 to 16 h): 1440 nM | Urine concentration, mean ([2]; 2 mg single oral dose, 16 to 24 h): 400 nM | Urine concentration, mean ([2]; 2 mg single oral dose, 24 to 32 h): BQL | Urine concentration, mean ([2]; 2 mg single oral dose, 32 to 40 h): BQL | Urine concentration, mean ([2]; 2 mg single oral dose, 40 to 48 h): BQL | Urine concentration, mean ([2]; 10 mg single oral dose, 0 to 8 h): 30964 nM | Urine concentration, mean ([2]; 10 mg single oral dose, 8 to 16 h): 14181 nM | Urine concentration, mean ([2]; 10 mg single oral dose, 16 to 24 h): 1994 nM | Urine concentration, mean ([2]; 10 mg single oral dose, 24 to 32 h): 535 nM | Urine concentration, mean ([2]; 10 mg single oral dose, 32 to 40 h): 240 nM | Urine concentration, mean ([2]; 10 mg single oral dose, 40 to 48 h): BQL
Structure (SMILES): O=C(O)c1nc2ccccc2n([C@H]2C[C@H]3CCC[C@@H](C2)N3C2CC3CCCC(C3)C2)c1=O (some centres unmarked) [compound of formula (IA)]
AUC 1-6 g (allodynia) ([1]; 30 mg/kg p.o., +2 h after CYP): 19.8±6.9 % scores × g | Nociceptive threshold ([1]; 30 mg/kg p.o., +2 h after CYP): 6.6 ± 0.8 g | AUC 1-6 g (allodynia) ([1]; 30 mg/kg p.o., +3 h after CYP): 19.3±6.3 % scores × g | Nociceptive threshold ([1]; 30 mg/kg p.o., +3 h after CYP): 6.3 ± 1.2 g | AUC 1-6 g (allodynia) ([1]; 30 mg/kg p.o., +4 h after CYP): 34.1±7.9 % scores × g | Nociceptive threshold ([1]; 30 mg/kg p.o., +4 h after CYP): 4.8 ± 0.8 g | AUC 1-6 g (allodynia) ([1]; 30 mg/kg p.o., +24 h after CYP): 61.8±15.7 % scores × g | Nociceptive threshold ([1]; 30 mg/kg p.o., +24 h after CYP): 3.7 ± 0.8 g | Effect on nociceptive threshold vs vehicle ([1]; 30 mg/kg p.o., CYP-injected rats, overall 2-24 h): overall inhibitory effect | Effect on nociceptive scores vs vehicle ([1]; 30 mg/kg p.o., from 2 h up to 24 h after CYP): significant decrease | Effect on AUC 1-6 g vs vehicle [1, 3]: overall decrease | Effect on CYP-induced AUC 6-26 g increase (hyperalgesia) vs vehicle [1, 3]: significant overall inhibitory effect

Structure (SMILES): CC(C)Cc1ccc(C(C)C(=O)O)cc1 (centres unmarked) [Ibuprofen, reference compound]
Effect on nociceptive scores vs vehicle ([1]; 300 mg/kg p.o., all along the observation period (2-24 h)): significantly decreased | Effect on nociceptive threshold vs vehicle ([1]; 300 mg/kg p.o., overall 2-24 h after CYP): significant overall increase
